Drawing on patent US20260200939A1, “MOLECULAR GLUE DEGRADER COMPOUNDS AND USES THEREOF” (Novartis AG, priority 2022, published 2026), this text covers DC50 for 18 molecules.

Usually DC50 stands for the concentration giving 50% degradation.

The target of the experiment is T1, CDK4 (Homo sapiens, UniProt P11802).
T1 construct: endogenous in cells; host or cells: C33A
As to the kind of experiment: CDK4 Degradation Assay, Western blotting. It is filed as cell-based. As for the experimental part:
C33A cells were purchased from American Type Culture Collection (ATCC) and were cultured in Dulbecco's Modified Eagle Medium (DMEM) containing 10% (v/v) fetal bovine serum (FBS) and maintained at 37° C. with 5% CO2. 22RV1 cells were purchased from the ATCC and were cultured in RPMI-1640 Medium containing 10% (v/v) FBS and maintained at 37° C. with 5% CO2. HEK293T cells were obtained from the UC Berkeley Cell Culture Facility and were cultured in DMEM containing 10% (v/v) FBS and maintained at 37° C. with 5% CO2. K562 cells were obtained from the UC Berkeley Cell Culture Facility and were cultured in Iscove's Modified Dulbecco's Medium (IMDM) containing 10% (v/v) FBS and maintained at 37° C. with 5% CO2. MV-4-11 cells were obtained from the ATCC and were cultured in IMDM containing 10% (v/v) FBS and maintained at 37° C. with 5% CO2. A549 cells were obtained from the ATCC and were cultured in F-12K Medium containing 10% (v/v) FBS and maintained at 37° C. with 5% CO2. Mino cells were obtained from the ATCC and were cultured in RPMI-1640 Medium containing 10% (v/v) FBS and maintained at 37° C. with 5% CO2. LNCaP cells were obtained from the ATCC and were cultured in RPMI-1640 Medium containing 10% (v/v) FBS and maintained at 37° C. with 5% CO2. Unless otherwise specified, all cell culture materials were purchased from Gibco. It is not known whether HEK293T cells are from male or female origin.
Cells were washed twice with cold PBS, scraped, and pelleted by centrifugation (700 g, 5 min, 4° C.). Pellets were resuspended in PBS, sonicated, clarified by centrifugation (12,000 g, 10 min, 4° C.), and lysate was transferred to new low-adhesion microcentrifuge tubes. Proteome concentrations were determined using BCA assay and lysate was diluted to appropriate working concentrations.
Proteins were resolved by SDS/PAGE and transferred to nitrocellulose membranes using the Trans-Blot Turbo transfer system (Bio-Rad). Membranes were blocked with 5% BSA in Tris-buffered saline containing Tween 20 (TBS-T) solution for 30 min at RT, washed in TBS-T, and probed with primary antibody diluted in recommended diluent per manufacturer overnight at 4° C. After 3 washes with TBS-T, the membranes were incubated in the dark with IR680- or IR800-conjugated secondary antibodies at 1:10,000 dilution in 5% BSA in TBS-T at RT for 1 h. After 3 additional washes with TBST, blots were visualized using an Odyssey Li-Cor fluorescent scanner. The membranes were stripped using ReBlot Plus Strong Antibody Stripping Solution (EMD Millipore) when additional primary antibody incubations were performed. Antibodies used in this study were CDK4 (Abcam ab108357), Vinculin (Abcam ab129002), GAPDH (Cell Signaling Technology 14C10), RNF126 (Santa Cruz Biotechnology sc-376005), BRD4 (Abcam ab128874), Beta Actin (Cell Signaling Technology 13E5), PDE5 (Abcam ab259945), AR-V7 (Abcam ab273500), c-Abl (Santa Cruz Biotechnology sc-23), SMARCA2 (Abcam ab240648), LRRK2 (Abcam ab133474), BTK (Cell Signaling Technology D3H5), Androgen Receptor (Abcam ab133273).
In general terms: A western blot detects proteins with antibodies after separation by electrophoresis.
As for `CN(C)C(=O)c1cc2cnc(Nc3ccc(N4CCN(C(=O)/C=C/C(=O)c5ccccc5Cl)CC4)cn3)nc2n1C1CCCC1` [Compound 158, (E)-2-((5-(4-(4-(2-chlorophenyl)-4-oxobut-2-enoyl)piperazin-1-yl)pyridin-2-yl)amino)-7-cyclopentyl-N,N-dimethyl-7H-pyrrolo[2,3-d]pyrimidine-6-carboxamide], the 50% degradation concentration (DC50) was more than 10 µM.

With `CN(C)C(=O)c1cc2cnc(Nc3ccc(N4CCN(C(=O)/C=C/C(=O)c5ccccc5Br)CC4)cn3)nc2n1C1CCCC1` [Compound 159, (E)-2-((5-(4-(4-(2-bromophenyl)-4-oxobut-2-enoyl)piperazin-1-yl)pyridin-2-yl)amino)-7-cyclopentyl-N,N-dimethyl-7H-pyrrolo[2,3-d]pyrimidine-6-carboxamide], the DC50 is more than 10 µM.

In the case of `COc1ccc(C(=O)/C=C(\C)C(=O)N2CCN(c3ccc(Nc4ncc5cc(C(=O)N(C)C)n(C6CCCC6)c5n4)nc3)CC2)cc1` [Compound 160, (E)-7-cyclopentyl-2-((5-(4-(4-(4-methoxyphenyl)-2-methyl-4-oxobut-2-enoyl)piperazin-1-yl)pyridin-2-yl)amino)-N,N-dimethyl-7H-pyrrolo[2,3-d]pyrimidine-6-carboxamide], the DC50 is more than 10 µM.

Turning to `CN(C)C(=O)c1cc2cnc(Nc3ccc(N4CCN(C(=O)/C=C/C(=O)c5cccc(C(F)(F)F)c5)CC4)cn3)nc2n1C1CCCC1` [Compound 165, (E)-7-cyclopentyl-N,N-dimethyl-2-((5-(4-(4-oxo-4-(3-(trifluoromethyl)phenyl)but-2-enoyl)piperazin-1-yl)pyridin-2-yl)amino)-7H-pyrrolo[2,3-d]pyrimidine-6-carboxamide], the 50% degradation concentration (DC50) was more than 10 µM.

`CN(C)C(=O)c1cc2cnc(Nc3ccc(N4CCN(C(=O)/C=C/C(=O)c5ccc6c(c5)OCCO6)CC4)cn3)nc2n1C1CCCC1` [Compound 255, (E)-7-cyclopentyl-2-((5-(4-(4-(2,3-dihydrobenzo[b][1,4]dioxin-6-yl)-4-oxobut-2-enoyl)piperazin-1-yl)pyridin-2-yl)amino)-N,N-dimethyl-7H-pyrrolo[2,3-d]pyrimidine-6-carboxamide] came in with a 50% degradation concentration (DC50) of more than 10 µM.

In turn, `COc1ccc(C(=O)/C=C(\C#N)C(=O)N2CCN(c3ccc(Nc4ncc5cc(C(=O)N(C)C)n(C6CCCC6)c5n4)nc3)CC2)cc1` [Compound 256, (E)-2-((5-(4-(2-cyano-4-(4-methoxyphenyl)-4-oxobut-2-enoyl)piperazin-1-yl)pyridin-2-yl)amino)-7-cyclopentyl-N,N-dimethyl-7H-pyrrolo[2,3-d]pyrimidine-6-carboxamide] displayed a half-maximal degradation concentration (DC50) of more than 10 µM.

Molecule `CN(C)C(=O)c1cc2cnc(Nc3ccc(N4CCN(C(=O)/C=C/C(=O)c5ccc6c(c5)NC(=O)CO6)CC4)cn3)nc2n1C1CCCC1` [Compound 257, (E)-7-cyclopentyl-N,N-dimethyl-2-((5-(4-(4-oxo-4-(3-oxo-3,4-dihydro-2H-benzo[b][1,4]oxazin-6-yl)but-2-enoyl)piperazin-1-yl)pyridin-2-yl)amino)-7H-pyrrolo[2,3-d]pyrimidine-6-carboxamide] showed a DC50 of more than 10 µM.

On to `CN(C)C(=O)c1cc2cnc(Nc3ccc(N4CCN(C(=O)/C=C/C(=O)c5ccccc5)CC4)cn3)nc2n1C1CCCC1` [Compound 258, (E)-7-cyclopentyl-N,N-dimethyl-2-((5-(4-(4-oxo-4-phenylbut-2-enoyl)piperazin-1-yl)pyridin-2-yl)amino)-7H-pyrrolo[2,3-d]pyrimidine-6-carboxamide], for which the DC50 was more than 10 µM.

In the case of `CN(C)C(=O)c1cc2cnc(Nc3ccc(N4CCN(C(=O)/C=C/C(=O)c5cccc(Br)c5)CC4)cn3)nc2n1C1CCCC1` [Compound 259, (E)-2-((5-(4-(4-(3-bromophenyl)-4-oxobut-2-enoyl)piperazin-1-yl)pyridin-2-yl)amino)-7-cyclopentyl-N,N-dimethyl-7H-pyrrolo[2,3-d]pyrimidine-6-carboxamide], the half-maximal degradation concentration (DC50) was more than 10 µM.

`CN(C)C(=O)c1cc2cnc(Nc3ccc(N4CCN(C(=O)/C=C/C(=O)c5ccc6c(c5)OCC6)CC4)cn3)nc2n1C1CCCC1` [Compound 260, (E)-7-cyclopentyl-2-((5-(4-(4-(2,3-dihydrobenzofuran-6-yl)-4-oxobut-2-enoyl)piperazin-1-yl)pyridin-2-yl)amino)-N,N-dimethyl-7H-pyrrolo[2,3-d]pyrimidine-6-carboxamide] returned a DC50 of more than 10 µM.

For `CN(C)C(=O)c1cc2cnc(Nc3ccc(N4CCN(C(=O)/C=C/C(=O)c5ccc6c(c5)CCO6)CC4)cn3)nc2n1C1CCCC1` [Compound 261, (E)-7-cyclopentyl-2-((5-(4-(4-(2,3-dihydrobenzofuran-5-yl)-4-oxobut-2-enoyl)piperazin-1-yl)pyridin-2-yl)amino)-N,N-dimethyl-7H-pyrrolo[2,3-d]pyrimidine-6-carboxamide], the DC50 was more than 10 µM.

Take `Cc1ccc(C(=O)/C=C/C(=O)N2CCN(c3ccc(Nc4ncc5cc(C(=O)N(C)C)n(C6CCCC6)c5n4)nc3)CC2)cc1` [Compound 262, (E)-7-cyclopentyl-N,N-dimethyl-2-((5-(4-(4-oxo-4-(p-tolyl)but-2-enoyl)piperazin-1-yl)pyridin-2-yl)amino)-7H-pyrrolo[2,3-d]pyrimidine-6-carboxamide]: the DC50 fell in the range of 1 to 10 µM.

`Cc1ccccc1C(=O)/C=C/C(=O)N1CCN(c2ccc(Nc3ncc4cc(C(=O)N(C)C)n(C5CCCC5)c4n3)nc2)CC1` [Compound 263, (E)-7-cyclopentyl-N,N-dimethyl-2-((5-(4-(4-oxo-4-(o-tolyl)but-2-enoyl)piperazin-1-yl)pyridin-2-yl)amino)-7H-pyrrolo[2,3-d]pyrimidine-6-carboxamide] gave a 50% degradation concentration (DC50) of more than 10 µM.

The molecule `COc1ccc(C(=O)/C=C/C(=O)N2CCN(c3ccc(Nc4ncc5cc(C(=O)N(C)C)n(C6CCCC6)c5n4)nc3)CC2)c(F)c1` [Compound 264, (E)-7-cyclopentyl-2-((5-(4-(4-(2-fluoro-4-methoxyphenyl)-4-oxobut-2-enoyl)piperazin-1-yl)pyridin-2-yl)amino)-N,N-dimethyl-7H-pyrrolo[2,3-d]pyrimidine-6-carboxamide] displayed a half-maximal degradation concentration (DC50) of more than 10 µM.

As to `COc1cc(F)ccc1C(=O)/C=C/C(=O)N1CCN(c2ccc(Nc3ncc4cc(C(=O)N(C)C)n(C5CCCC5)c4n3)nc2)CC1` [Compound 265, (E)-7-cyclopentyl-2-((5-(4-(4-(4-fluoro-2-methoxyphenyl)-4-oxobut-2-enoyl)piperazin-1-yl)pyridin-2-yl)amino)-N,N-dimethyl-7H-pyrrolo[2,3-d]pyrimidine-6-carboxamide], the half-maximal degradation concentration (DC50) is more than 10 µM.

Turning to `COc1ccc(C(=O)/C=C/C(=O)N2CCN(c3ccc(Nc4ncc5cc(C(=O)N(C)C)n(C6CCCC6)c5n4)nc3)CC2)cc1F` [Compound 266, (E)-7-cyclopentyl-2-((5-(4-(4-(3-fluoro-4-methoxyphenyl)-4-oxobut-2-enoyl)piperazin-1-yl)pyridin-2-yl)amino)-N,N-dimethyl-7H-pyrrolo[2,3-d]pyrimidine-6-carboxamide], the DC50 was more than 10 µM.

The molecule `CN(C)C(=O)c1cc2cnc(Nc3ccc(N4CCN(C(=O)/C=C/C(=O)c5ccc(C#N)cc5)CC4)cn3)nc2n1C1CCCC1` [Compound 267, (E)-2-((5-(4-(4-(4-cyanophenyl)-4-oxobut-2-enoyl)piperazin-1-yl)pyridin-2-yl)amino)-7-cyclopentyl-N,N-dimethyl-7H-pyrrolo[2,3-d]pyrimidine-6-carboxamide] registered a 50% degradation concentration (DC50) of more than 10 µM.

In the case of `COc1ccc(C(=O)/C=C/C(=O)N2CCN(c3ccc(Nc4ncc5cc(C(=O)N(C)C)n(C6CCCC6)c5n4)nc3)CC2)c(Cl)c1` [Compound 268, (E)-2-((5-(4-(4-(2-chloro-4-methoxyphenyl)-4-oxobut-2-enoyl)piperazin-1-yl)pyridin-2-yl)amino)-7-cyclopentyl-N,N-dimethyl-7H-pyrrolo[2,3-d]pyrimidine-6-carboxamide], the DC50 was more than 10 µM.
